# From ChEMBL document CHEMBL5303711, “ECBD screening data for assay EOS300108” (2023)
# Where a name gives a salt, the structure may show the parent alone. Calls of active or inactive are those of the source. The rule behind the calls is not given here.
# Experiment: Cytotoxicity activity against human HepG2 cells assessed by CellTiter-Glo luminescent cell viability assay.
# Assay type: toxicity, cell-based
# Design: assay stage confirmatory assay, source tissue liver
# Details: HepG2 cells, read-out: IC50 relative
row,SMILES,CC50
1,CC(C)N(CCCNC(=O)Nc1ccc(C(C)(C)C)cc1)C[C@H]1O[C@@H](n2cc(Br)c3c(N)ncnc32)[C@H](O)[C@@H]1O,10.1 µM (active)
2,Cc1cc(C)cc(N2CCN(C(=O)c3cnn4ccccc34)CC2=O)c1,0.7 µM (active)
3,Cc1cnc(Nc2ccc(F)cc2Cl)nc1-c1c[nH]c(C(=O)N[C@H](CO)c2cccc(Cl)c2)c1,0.7 µM (active)
4,CC(C)[C@H](NC1CCN(C(=O)c2ccco2)CC1)c1ccccc1,10.6 µM (inactive)
5,CN1CCN(Cc2ccc(Nc3ncc(Cl)c(Nc4ccccc4S(=O)(=O)N(C)C)n3)cc2)CC1 [DUBERMATINIB],11.2 µM (active)
6,NCC(c1ccc(Cl)cc1)C1CCCC1 (stereo not given),8 µM (active)
7,C[C@@H](O[C@H]1OCCN(Cc2n[nH]c(=O)[nH]2)[C@H]1c1ccc(F)cc1)c1cc(C(F)(F)F)cc(C(F)(F)F)c1 [APREPITANT],14.8 µM (inactive)
8,CCN1CCS/C1=C\C=C\C1=[N+](CC)CCS1,6.3 µM (active)
9,CC(C)(C)c1ccc(C(O)CCCN2CCC(C(O)(c3ccccc3)c3ccccc3)CC2)cc1 (stereo not given) [TERFENADINE],3.1 µM (active)
10,Cc1ccc(N2N=C(C(=O)NCCN3CCOCC3)S(=O)(=O)c3cc(F)ccc32)cc1,11.2 µM (active)
11,O=c1ccc2cc(S(=O)(=O)Nc3cccc4cccnc34)ccc2o1,3.5 µM (active)
12,Cc1ccc(/N=c2\ssnc2Cl)nc1,16.4 µM (inactive)
13,O=C1c2ccccc2C(=O)c2oc(-c3ccccc3)nc21,2.6 µM (active)
14,Cc1cccc2nc(C(=O)Nc3cccc4cccnc34)cn12,0.1 µM (active)
15,Cn1ncc(N2CCC(C(=O)N3CCN(CCOc4ccc(Cl)cc4)CC3)C2)cc1=O (stereo not given),5 µM (active)
16,O=C1c2ccccc2-n2c1nc1ccccc1c2=O [TRYPTANTHRIN],4.3 µM (active)
17,CN1CCN(S(=O)(=O)c2cccc(C(=O)Nc3nc(-c4ccccc4)cs3)c2)CC1,12.5 µM (active)
18,Cc1cc2sc(NC(=O)NCCNS(C)(=O)=O)nc2cc1F,2.3 µM (active)
19,CCNc1cc(C)nc(Nc2ccc(NC(=O)CC(C)C)cc2)n1,11 µM (active)
20,O=C(c1cccc2cnccc12)N1CCc2c(nc(-c3ccccc3)[nH]c2=O)C1,1.5 µM (active)
21,CC1CCN(CC(O)COc2ccccc2C(C)(C)C)CC1 (stereo not given),9.6 µM (active)
22,CCCc1cc2c(N3CCN(C4=NCC(C)(C)S4)CC3)ncnc2s1,13.7 µM (active)

row,SMILES,CC50
1,COc1ccc(NC(=O)Nc2ccc3nc(S(C)(=O)=O)sc3c2)cc1,17.5 µM (inactive)
2,O=C(Cn1ncc(Cl)c(Cl)c1=O)N(Cc1ccco1)CC(F)(F)F,6.6 µM (active)
3,CCn1c(NC(=O)c2ccc(OC)c(OC)c2)nc2cc(C#N)ccc21,2.3 µM (active)
4,CCN(CC)CCCNC(=O)C1CCCN(c2ncc(-c3ccc(F)cc3)cn2)C1 (stereo not given),10.9 µM (active)
5,CN[C@H]1CCCN(S(=O)(=O)c2ccc(Cl)cc2F)C1,17.1 µM (inactive)
6,CCOc1ccc(NC(=O)C2CCN(S(=O)(=O)c3ccc4c(c3)OCCCO4)CC2)cc1,50 µM (inactive)
7,COc1cc2c(cc1C(=O)Nc1ccccc1F)OCCCO2,13.8 µM (inactive)
8,O=S1(=O)CCCN1c1ccc(CNc2ncnc3ccccc23)cc1F,2.2 µM (active)
9,O=C(CCC1CCCN(c2cc(NC3CC3)ncn2)C1)N1CCN(c2ccc(F)cc2)CC1 (stereo not given),9.1 µM (active)
10,COc1ccc(CCN2C(=O)N(C)C(=O)C23CCN(Cc2cccc(OC)c2)CC3)cc1,6.6 µM (active)
11,C=CC(=O)Nc1cccc(Oc2nc(Nc3ccc(N4CCN(C)CC4)c(F)c3)nc3[nH]ccc23)c1,1.9 µM (active)
12,CNC(=O)c1c(F)cccc1Nc1nc(Nc2cc3c(cc2OC)CCN3C(=O)CN(C)C)nc2[nH]ccc12,3.6 µM (active)
13,CC(C)N1CCC(NC(=O)CN2CCCN(Cc3ccccc3)c3ccccc32)CC1,12.4 µM (active)
14,COc1cc2ncnc(Nc3ccc(F)c(Cl)c3)c2cc1NC(=O)/C=C/CN1CCCCC1 [DACOMITINIB ANHYDROUS],6.5 µM (active)
15,COc1cc(NCc2ccc3nc(N)nc(N)c3c2C)cc(OC)c1OC [TRIMETREXATE],1.7 µM (active)
16,Fc1ccc(C(c2ccc(F)cc2)N2CCN(C/C=C/c3ccccc3)CC2)cc1 [FLUNARIZINE HYDROCHLORIDE],14.6 µM (inactive)
17,COc1cc2c(NC3CCN(C(C)C)CC3)nc(N3CCC(F)(F)CC3)nc2cc1OCCCN1CCCC1,3.1 µM (active)
18,C=C(C)[C@@H]1Cc2c(ccc3c2O[C@H]2COc4cc(OC)c(OC)cc4[C@H]2C3=O)O1,0.3 µM (active)
19,CCN(CC)CCCNC(=O)C1CCN(c2nn3cc(-c4ccc(OC)cc4)nc3s2)CC1,3 µM (active)
20,CNCC[C@H](Oc1cccc2ccccc12)c1cccs1 [DULOXETINE HYDROCHLORIDE],4.3 µM (active)
21,NCC1CCN(c2nccc(-c3ccc4ccccc4c3)n2)CC1,4.4 µM (active)
22,Cc1ccc([N+](=O)[O-])cc1S(=O)(=O)N(C)/N=C/c1cnc2ccc(Br)cn12,< 0.1 µM (active)

row,SMILES,CC50
1,F[C@H](c1nc(-c2ccc(OCc3cccnc3)cc2)no1)C1CNC1,8.2 µM (active)
2,CCc1ccc(-c2cc3c(=O)n(CC(=O)NCCCN4CCN(CC)CC4)nc(C)n3n2)cc1,25.5 µM (inactive)
3,CNc1nc(-c2ccc3c(N)n[nH]c3c2)cc(N2C[C@@H](C(=O)NC3CCCCC3)CC[C@H]2C)n1,50 µM (inactive)
4,Cc1ccccc1N1CCN(C(=O)C2CCN(S(=O)(=O)c3ccc4c(c3)OCCCO4)CC2)CC1,1.7 µM (active)
5,O=C(Nc1ccccc1O)c1cccc(NC(=O)c2cccs2)c1,7.1 µM (active)
6,CS(=O)(=O)c1ncc(Cl)c(C(=O)Nc2ccc(Cl)cc2)n1,4.1 µM (active)
7,C[n+]1ccc(/C=C/c2c[nH]c3ccccc23)cc1,1.2 µM (active)
8,COc1ccc(-c2noc(=O)n2Cc2ncc(C)c(OC)c2C)cc1OC,6.2 µM (active)
9,CC1CCc2c(sc3ncnc(NN)c23)C1 (stereo not given),20.5 µM (inactive)
10,c1ccc(-c2cnn3c(-c4ccco4)ccnc23)cc1,0.5 µM (active)
11,COc1cc(OC)c(OC)cc1CNC(=O)c1cccc2cccnc12,12 µM (inactive)
12,CCc1c2c(nc3ccc(O)cc13)-c1cc3c(c(=O)n1C2)COC(=O)[C@]3(O)CC [7-ETHYL-10-HYDROXYCAMPTOTHECIN],0.2 µM (active)
13,COc1ccc(CN(CC(=O)c2c(N)n(C)c(=O)n(C)c2=O)[C@@H](C)Cc2cccs2)cc1,7.2 µM (active)
14,Cc1cc(C#N)cc(C)c1Oc1nc(Nc2ccc(C#N)cc2)nc(N)c1Br [ETRAVIRINE],50 µM (inactive)
15,Cc1ccccc1C[C@H](C)NCCN1CCC(N(C)C)CC1,13.7 µM (inactive)
16,CCOc1ccc(S(=O)(=O)NCC2(C)CCNCC2)c2ccccc12,10 µM (active)
17,Cc1csc(NC(=O)CSc2ccc(-c3ccccc3)nn2)n1,14.7 µM (inactive)
18,CN1CCN(Cc2ccc(-c3cnc4[nH]cc(-c5ccc6[nH]ccc6c5)c4c3)cc2)CC1,1.4 µM (active)
19,Cc1cc(C)cc(NC(=O)CC2CCCN(c3cn[nH]c(=O)c3)C2)c1 (stereo not given),2.4 µM (active)
20,O=C(Nc1cccnc1)N1CCN(c2ccc(S(=O)(=O)N3CCOCC3)cn2)CC1,2.5 µM (active)
21,O=C1c2ccccc2C(=O)N1Cn1ncc(Cl)c(Cl)c1=O,11.5 µM (active)
